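1) Cells in 96-well plates. 2) Compound, 48 h, 5 concentrations. 3) Linear interpolation between surrounding doses. 4) Unreached endpoint = highest concentration. At the GI50, growth is halved.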 Active and inactive are the calls of the source. No stated cut-off is given here; in the data, active = GI50 up to about 1.1 µM and inactive = higher.

Here are results for eleven compounds from ChEMBL document CHEMBL1201862, “PubChem BioAssay data set” (2004).

Test systems include MDA-MB-231; MOLT-4; NCI-H226; NCI-H460; SK-OV-3; OVCAR-5; COLO 205; HT-29; EKVX; NCI/ADR-RES; MDA-MB-435; BT-549; SN12C; UO-31; ACHN; DU-145; T47D; OVCAR-3; SNB-19; SR.
Assay in all cases: NCI anticancer screen, dose series, 48 h

For `CNC(C#N)c1ccc(OC)cc1` (stereo unspecified), the GI50 was > 100 µM (inactive) in the experiment with MDA-MB-231; 43.7 µM (inactive) in the experiment on MOLT-4; > 100 µM (inactive) in the experiment on NCI-H226; > 100 µM (inactive) in the experiment with NCI-H460; > 100 µM (inactive) in the experiment on SK-OV-3; > 100 µM (inactive) in the experiment with OVCAR-5. For the same compound, the GI50 with COLO 205 was 71.3 µM (inactive); with HT-29, 61.1 µM (inactive); with EKVX it was > 100 µM (inactive); with NCI/ADR-RES it was > 100 µM (inactive); in the experiment with MDA-MB-435 it was 33.6 µM (inactive); in the experiment on BT-549, > 100 µM (inactive). Also, the GI50 was > 100 µM (inactive) in the experiment with SN12C; > 100 µM (inactive) in the experiment with UO-31; > 100 µM (inactive) in the experiment with ACHN; > 100 µM (inactive) in the experiment with DU-145; 61.5 µM (inactive) in the experiment on T47D; 61 µM (inactive) in the experiment with OVCAR-3. In addition, the GI50 in the experiment with SNB-19 is > 100 µM (inactive).

Turning to `CCCCCCCCCCCCCCCCOCC(CCl)OP(=O)(O)OP(=O)(O)OCC1OC(n2ccc(N)nc2=O)C(O)C1O` (stereo unspecified), the GI50 with MDA-MB-231, in the experiment on MOLT-4, in the experiment with NCI-H226, in the experiment with NCI-H460, in the experiment with SK-OV-3 and in the experiment on OVCAR-5 was > 100 µM (inactive) throughout. The GI50 in the experiment on COLO 205, with HT-29, with EKVX, with NCI/ADR-RES, with MDA-MB-435 and with BT-549 was > 100 µM (inactive) each time. Also, the GI50 with SN12C, with UO-31, in the experiment with ACHN, in the experiment on T47D, in the experiment on OVCAR-3 and with SNB-19 was > 100 µM (inactive) throughout.

On to `Cc1c(S(=O)(=O)N/C(=N\O)Nc2ccc(Cl)c(Cl)c2)sc2ccc(Cl)cc12`, for which the GI50 with MDA-MB-231 is 23.8 µM (inactive); in the experiment with MOLT-4 it was 34.1 µM (inactive); in the experiment with NCI-H226 it was 20.9 µM (inactive); with OVCAR-5 it was 21.6 µM (inactive); in the experiment with COLO 205, 17.9 µM (inactive); in the experiment with HT-29, 14.4 µM (inactive). Besides, the GI50 is 12.9 µM (inactive) in the experiment on EKVX; 18.7 µM (inactive) in the experiment on NCI/ADR-RES; 17.9 µM (inactive) in the experiment on MDA-MB-435; 17.7 µM (inactive) with BT-549; 18.7 µM (inactive) in the experiment with SN12C; 20.3 µM (inactive) in the experiment on UO-31. Moreover, the GI50 was 12.1 µM (inactive) with ACHN; 18.8 µM (inactive) in the experiment on DU-145; 14.4 µM (inactive) in the experiment with T47D; 14.5 µM (inactive) in the experiment on OVCAR-3; 19.1 µM (inactive) with SNB-19.

For the compound `CC(=O)NC1C(OCc2ccccc2)OC(CO)C(O)C1OCC(=O)N1CCCC1C(=O)N[C@@H](CCC(=O)NCCNCCNc1c2ccccc2nc2cccc([N+](=O)[O-])c12)C(N)=O` (stereo partly specified), the GI50 in the experiment on MDA-MB-231 was 2.5 µM (inactive); in the experiment on MOLT-4, 1.33 µM (inactive); with NCI-H226, 5.6 µM (inactive); with NCI-H460, 0.849 µM (active); in the experiment with SK-OV-3 it was 10.4 µM (inactive); in the experiment on OVCAR-5, 6.81 µM (inactive). Also, the GI50 in the experiment on COLO 205 was 1.88 µM (inactive); in the experiment on HT-29, 1.46 µM (inactive); in the experiment on EKVX it was 7.57 µM (inactive); in the experiment with NCI/ADR-RES, 7.45 µM (inactive); in the experiment on MDA-MB-435, 2.65 µM (inactive); in the experiment with BT-549, 4.82 µM (inactive). The GI50 in the experiment with SN12C is 1.39 µM (inactive); with UO-31, 3.75 µM (inactive); in the experiment with ACHN it was 2.11 µM (inactive); in the experiment on DU-145 it was 0.968 µM (active); with T47D it was 5.78 µM (inactive); in the experiment on OVCAR-3, 5.65 µM (inactive). Moreover, the GI50 in the experiment on SNB-19 is 5.5 µM (inactive).

Take `Cn1cc(S(=O)(=O)NC(=O)Nc2ccc(Cl)cc2)c(=O)c2ccc(Cl)cc21`: the GI50 in the experiment with MDA-MB-231 is > 100 µM (inactive); in the experiment on MOLT-4, 85.5 µM (inactive); with NCI-H226 it was 75 µM (inactive); in the experiment with NCI-H460, > 100 µM (inactive); in the experiment with SK-OV-3, > 100 µM (inactive); in the experiment with OVCAR-5 it was > 100 µM (inactive). Also, the GI50 is 43.8 µM (inactive) in the experiment with SR; > 100 µM (inactive) in the experiment on HT-29; > 100 µM (inactive) in the experiment on EKVX; 38 µM (inactive) in the experiment on NCI/ADR-RES; 48.5 µM (inactive) in the experiment with MDA-MB-435; 43.8 µM (inactive) in the experiment on BT-549. Besides, the GI50 was 99.3 µM (inactive) in the experiment on SN12C; > 100 µM (inactive) in the experiment on UO-31; 34.2 µM (inactive) in the experiment with ACHN; > 100 µM (inactive) in the experiment on T47D; > 100 µM (inactive) in the experiment on OVCAR-3; 87.9 µM (inactive) with SNB-19.

With `CCCCCCCCCCCCCCCCCCNc1nc(=O)n(C2CC(O)C(COP(=O)(O)O)O2)cc1F` (stereo unspecified), the GI50 with MDA-MB-231 is > 100 µM (inactive); in the experiment with MOLT-4 it was 36 µM (inactive); in the experiment on NCI-H226, 38.9 µM (inactive); in the experiment with NCI-H460 it was 35.5 µM (inactive); with SK-OV-3 it was > 100 µM (inactive); in the experiment with OVCAR-5 it was > 100 µM (inactive). For the same compound, the GI50 is > 67.1 µM (inactive) with COLO 205; > 100 µM (inactive) in the experiment on HT-29; 99.5 µM (inactive) in the experiment on EKVX; > 35.6 µM (inactive) in the experiment on NCI/ADR-RES; > 100 µM (inactive) in the experiment on MDA-MB-435; > 100 µM (inactive) in the experiment with BT-549. Also, the GI50 was > 95.7 µM (inactive) with SN12C; 31.7 µM (inactive) with UO-31; 10.8 µM (inactive) in the experiment on ACHN; > 57.4 µM (inactive) in the experiment with DU-145; 42.9 µM (inactive) in the experiment on T47D; > 100 µM (inactive) in the experiment on OVCAR-3. Moreover, the GI50 with SNB-19 was > 100 µM (inactive).

As to `CC(C)(C)n1nc(C2CC2)cc1NC(=O)Nc1ccc(Cl)cc1`, the GI50 with MDA-MB-231, in the experiment on MOLT-4, with NCI-H226, in the experiment on NCI-H460, with SK-OV-3 and in the experiment on OVCAR-5 was > 100 µM (inactive) each time. For the same compound, the GI50 in the experiment with COLO 205, in the experiment on HT-29, in the experiment with EKVX, in the experiment on NCI/ADR-RES, with MDA-MB-435 and in the experiment on BT-549 was > 100 µM (inactive) in each case. For the same compound, the GI50 in the experiment on SN12C, with UO-31, in the experiment with ACHN, in the experiment with DU-145, in the experiment on T47D and in the experiment with OVCAR-3 was > 100 µM (inactive) each time. For the same compound, in the experiment on SNB-19, the GI50 is > 100 µM (inactive).

As for `Cc1[nH]c2ncn3[nH]c(=S)nc3c2c1Cc1ccccc1`, the GI50 in the experiment with MDA-MB-231, in the experiment with MOLT-4, in the experiment on NCI-H226, with NCI-H460, in the experiment on SK-OV-3 and in the experiment on OVCAR-5 was > 100 µM (inactive) throughout. For the same compound, the GI50 in the experiment on COLO 205, in the experiment with HT-29, in the experiment with EKVX, in the experiment with NCI/ADR-RES, with MDA-MB-435 and in the experiment with BT-549 was > 100 µM (inactive) in each case. Besides, the GI50 in the experiment with SN12C was > 100 µM (inactive); in the experiment with UO-31 it was > 100 µM (inactive); with ACHN, > 100 µM (inactive); with DU-145, > 100 µM (inactive); in the experiment with T47D, 28.8 µM (inactive); with OVCAR-3 it was > 100 µM (inactive). In the experiment with SNB-19, the GI50 was > 100 µM (inactive).

On to `Cc1ccc(/C=C2\NC(=S)NC2=O)cc1`, for which the GI50 in the experiment with MDA-MB-231, in the experiment on MOLT-4, in the experiment with NCI-H226, in the experiment on SK-OV-3, in the experiment with OVCAR-5 and in the experiment with COLO 205 was > 100 µM (inactive) in each case. In addition, the GI50 with HT-29 is > 100 µM (inactive); with EKVX, 62.8 µM (inactive); with NCI/ADR-RES, > 100 µM (inactive); with MDA-MB-435, > 100 µM (inactive); in the experiment on BT-549, > 100 µM (inactive); in the experiment on SN12C, > 100 µM (inactive). Also, the GI50 with UO-31, in the experiment on DU-145, in the experiment with T47D, in the experiment on OVCAR-3 and with SNB-19 was > 100 µM (inactive) each time.

For the compound `CCSc1n/c(=C\c2ccco2)c2nnnn12`, the GI50 in the experiment with MDA-MB-231, in the experiment on MOLT-4, in the experiment with NCI-H226, in the experiment on SK-OV-3, in the experiment with OVCAR-5 and with COLO 205 was > 100 µM (inactive) throughout. The GI50 with HT-29, in the experiment on EKVX, with NCI/ADR-RES, with MDA-MB-435, in the experiment on BT-549 and in the experiment with SN12C was > 100 µM (inactive) throughout. Further, the GI50 in the experiment with UO-31, with ACHN, in the experiment with DU-145, in the experiment with T47D, in the experiment with OVCAR-3 and in the experiment with SNB-19 was > 100 µM (inactive) throughout.

On to `O=C(Nc1ccn(C2CC(O)C(CO)O2)c(=O)n1)c1ccccc1` (stereo unspecified), for which the GI50 with MDA-MB-231, in the experiment on MOLT-4, in the experiment with NCI-H226, with NCI-H460, with SK-OV-3 and with OVCAR-5 was > 100 µM (inactive) each time. Besides, the GI50 in the experiment with COLO 205, in the experiment with HT-29, in the experiment with EKVX, in the experiment on NCI/ADR-RES, in the experiment on MDA-MB-435 and in the experiment with BT-549 was > 100 µM (inactive) throughout. Moreover, the GI50 in the experiment on SN12C, in the experiment with ACHN, in the experiment on DU-145, in the experiment with T47D, with OVCAR-3 and in the experiment on SNB-19 was > 100 µM (inactive) each time.
